Test results reported in patent publication US20170165286A1, “COMPOSITIONS AND METHODS FOR TREATING DIABETES AND LIVER DISEASES” (Cempra Pharmaceuticals, Inc., priority 2014, published 2017).

Experiments:
[1] = Phase 1 study in subjects with hepatic impairment: safety; format: in vivo, humans; details: for Number of subjects reporting treatment-emergent AEs: 800 mg Day 1, 400 mg Days 2-5
Method: Safety of solithromycin in humans with hepatic insufficiency.
Safety and Pharmacokinetics of solithromycin in Subjects with Hepatic Impairment. The safety, pharmacokinetics (PK), and protein binding of solithromycin was evaluated in subjects with mild, moderate, and severe hepatic impairment compared to healthy subjects with normal hepatic function (matched for age, weight, and gender). The evaluation was performed in a Phase 1, open-label, multiple-dose study in subjects with mild (Child-Pugh Class A), moderate (Child-Pugh Class B), and severe (Child-Pugh Class C) hepatic impairment and healthy matched control subjects with normal hepatic function. All subjects received a once-daily dose of 800 mg on Day 1 followed by 400 mg on Days 2 through 5.
33 subjects were enrolled: 8 with mild impairment (mean Child-Pugh score 5.625), 8 with moderate impairment (mean Child-Pugh score 7.375), 8 with severe impairment (mean Child-Pugh score 10.625), and 9 healthy controls with normal hepatic function. One subject, a healthy control, discontinued study drug after 2 doses due to a rash; all other subjects (n=32) completed the study. Overall, the number of subjects reporting treatment-emergent AEs in the hepatic impaired cohorts (mild n=1, moderate n=4, severe n=4) was no greater than in the control group (n=4).

[2] = test system: lung mRNA expression levels; assay: Bleomycin-induced lung injury: quantitative RT-PCR of lung; format: in vivo; details: bleomycin mice lung, normalized to GAPDH, vehicle 1.00, heading says 50 mg/kg q.d.
Method: Bleomycin-Induced Lung Injury. Lung inflammation is induced in female mice by a single intratracheal administration of bleomycin. Twenty mice are divided into two groups. […] It is to be understood herein that 100 mg/kg in mice is generally considered to be equivalent to a 450-500 mg, such as 480 mg, dose in humans. Animals are sacrificed on Day 7.
Pathogen-free 7 weeks old female C57BL/6J mice are obtained from CLEA Japan (Tokyo, Japan) and allowed to acclimate at least 6 days. On day 0, twenty mice are induced to develop pulmonary fibrosis by a single intratracheal administration of bleomycin sulphate (BLM, Nippon Kayaku, Japan) in 0.9% saline in a volume of 50 μL per animal using a Microsprayer® (Penn-Century, USA). Individual body weight is measured daily during the experiment period. Survival, clinical signs and behavior of mice is monitored daily.
Solithromycin Reduces Inflammation In Mice Caused By Bleomycin-Induced Lung Injury. Pulmonary fibrosis is a problem in the management of patients who have received chemotherapy for malignancies particularly with regimens that contain bleomycin (BLM), methotrexate, cyclophosphamide, and many new agents. These patients are susceptible to pulmonary infections as well as to inflammation from pulmonary injury. […] The effects of solithromycin on the ability to prevent lung inflammation and fibrosis is described in a bleomycin induced-lung inflammation and fibrosis model. Group 1 (BLM-Vehicle): Ten BLM-induced pulmonary fibrosis model mice are orally administered vehicle (Carboxymethyl cellulose) at a volume of 10 mL/kg once daily from day −2 (two days before BLM administration) to day 6. […]
Quantitative RT-PCR. Total RNA was extracted from lung samples using RNAiso (Takara Bio, Japan). One μg of RNA was reverse-transcribed using a reaction mixture containing 4.4 mM MgCl2 (Roche, Switzerland), 40 U RNase inhibitor (Toyobo, Japan), 0.5 mM dNTP (Promega, USA), 6.28 μM random hexamer (Promega), 5× first strand buffer (Promega), 10 mM dithiothreitol (Invitrogen) and 200 U MMLV-RT (Invitrogen) in a final volume of 20 μL. The reaction was carried out for 1 hour at 37° C., followed by 5 minutes at 99° C. Real-time PCR was performed using real-time PCR DICE and SYBR premix Taq (Takara Bio). To calculate the relative mRNA expression level, the expression of each gene was normalized to that of reference gene GAPDH.
Analyses of BALF (bronchoalveolar lavage fluid). The cells in BALF are counted with a hemocytometer, and cell differentials are determined in cytospin preparations stained with Diff-Quik (Sysmex, Japan) MMP-9 in the supernatants from BALF are quantified by an enzyme-linked immunosorbent assay (ELISA; Cat# MMPT90, R&D Systems, USA). Histopathological assays for lung sections are performed according to standard methods. […]

## CC[C@H]1OC(=O)[C@@](C)(F)C(=O)[C@H](C)[C@@H](O[C@@H]2O[C@H](C)C[C@H](N(C)C)[C@H]2O)[C@](C)(OC)C[C@@H](C)C(=O)[C@H](C)[C@H]2N(CCCCn3cc(-c4cccc(N)c4)nn3)C(=O)O[C@]12C [solithromycin]
[1]; all cohorts
  Most commonly reported AEs: mild diarrhea and mild headache
[1]; any cohort, after 5 days of administration
  Mean changes from baseline in liver function tests on Day 8: not clinically significant
[1]; control cohort
  ALT mean (±SD) change from baseline on Day 8: 2.6±4.47 IU/L
  AST mean (±SD) change from baseline on Day 8: −0.6±2.92 IU/L
  Direct bilirubin mean (±SD) change from baseline on Day 8: 0.00 ± 0.053 mg/dL
[1]; healthy control group (9 enrolled)
  Number of subjects reporting treatment-emergent AEs: 4
[1]; humans with hepatic impairment, same doses
  Safety compared to healthy controls: no significant differences in safety
[1]; humans with mild, moderate and severe hepatic impairment, doses as high as 800 mg
  Tolerability: well tolerated
[1]; mild hepatic impairment
  ALT mean (±SD) change from baseline on Day 8: 4.0±8.00 IU/L
  AST mean (±SD) change from baseline on Day 8: 0.4±5.93 IU/L
  Direct bilirubin mean (±SD) change from baseline on Day 8: 0.00 ± 0.076 mg/dL
[1]; mild hepatic impairment (8 enrolled)
  Number of subjects reporting treatment-emergent AEs: 1
[1]; moderate hepatic impairment
  ALT mean (±SD) change from baseline on Day 8: 7.8±6.92 IU/L
  AST mean (±SD) change from baseline on Day 8: 0.1±10.56 IU/L
  Direct bilirubin mean (±SD) change from baseline on Day 8: 0.03 ± 0.046 mg/dL
[1]; moderate hepatic impairment (8 enrolled)
  Number of subjects reporting treatment-emergent AEs: 4
[1]; severe hepatic impairment
  ALT mean (±SD) change from baseline on Day 8: 6.3±14.61 IU/L
  AST mean (±SD) change from baseline on Day 8: 5.8±22.44 IU/L
  Direct bilirubin mean (±SD) change from baseline on Day 8: 0.04 ± 0.207 mg/dL
[1]; severe hepatic impairment (8 enrolled)
  Number of subjects reporting treatment-emergent AEs: 4
[2]
  Relative MCP-1 mRNA expression: 0.38 ± 0.32
  Relative MMP-9 mRNA expression: 0.42 ± 0.45
[2]; listed as SOLI
  Relative TNF-α mRNA expression: 2.45 ± 2.10
[2]; listed as Solithromycin
  Relative TNF-α mRNA expression: up-regulated
